Results taken from US12077503B2, “Substituted cyclic amides and their use as herbicides” (FMC CORPORATION, priority 2015, dated 2024).

Assays:
Format in all cases: in vivo
[1] = tested on: barnyardgrass (Echinochloa crus-galli); assay: Test B flooded paddy test; conditions: Echinochloa crus-galli, 250 g ai/ha, Flood; 0 to 100 scale where 0 is no effect and 100 is complete control; read-out: Barnyardgrass plant response rating
How it was run: (§1)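 Greenhouse paddy pots with 2-leaf stage plants received compound by direct addition to floodwater 3 cm deep, kept at that level. Scored visually at 13–15 d versus controls (0 no effect; 100 complete control).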

rice (Oryra sativa) = assay: Test B flooded paddy test; conditions: Oryza sativa, 250 g ai/ha, Flood; 0 to 100 scale where 0 is no effect and 100 is complete control; read-out: Rice plant response rating
How it was run: as §1

[2] = tested on: ducksalad (Heteranthera limosa); assay: Test B flooded paddy test; conditions: Heteranthera limosa, 250 g ai/ha, Flood; 0 to 100 scale where 0 is no effect and 100 is complete control; read-out: Ducksalad plant response rating
How it was run: as §1

[3] = tested on: sedge, umbrella (small-flower umbrella sedge, Cyperus difformis); assay: Test B flooded paddy test; conditions: Cyperus difformis, 250 g ai/ha, Flood; 0 to 100 scale where 0 is no effect and 100 is complete control; read-out: Sedge, Umbrella plant response rating
How it was run: as §1

[4] = tested on: ryegrass, Italian (Italian ryegrass, Lolium multiflorum); assay: Test A preemergence; conditions: Lolium multiflorum, pre-emergence, 240 h, 0 to 100 scale where 0 is no effect and 100 is complete control, read-out: Ryegrass, Italian plant response rating
How it was run: (§2)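 In a loam soil and sand blend, planted seeds got a preemergence directed soil spray, and young plants at the one- to two-leaf stage, 2–10 cm high, got a postemergence application; ~10 d greenhouse hold; injury rated visually, 0 = none, 100 = complete control.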

[5] = tested on: barnyardgrass (Echinochloa crus-galli); assay: Test A preemergence; conditions: Echinochloa crus-galli, pre-emergence, 240 h, 0 to 100 scale where 0 is no effect and 100 is complete control, read-out: Barnyardgrass plant response rating
How it was run: as §2

[6] = tested on: giant foxtail (Setaria faberii); assay: Test A preemergence; conditions: Setaria faberi, pre-emergence, 240 h, 0 to 100 scale where 0 is no effect and 100 is complete control, read-out: Foxtail, Giant plant response rating
How it was run: as §2

[7] = tested on: pigweed (Amaranthus retroflexus); assay: Test A preemergence; conditions: Amaranthus retroflexus, pre-emergence, 240 h, 0 to 100 scale where 0 is no effect and 100 is complete control, read-out: Pigweed plant response rating
[8] = tested on: ragweed (common ragweed, Ambrosia elatior); assay: Test A preemergence; conditions: Ambrosia artemisiifolia, pre-emergence, 240 h, 0 to 100 scale where 0 is no effect and 100 is complete control, read-out: Ragweed plant response rating
How it was run: as §2

Kochia (Kochia scoparia) [9] = assay: Test A preemergence; conditions: Bassia scoparia, pre-emergence, 240 h, 0 to 100 scale where 0 is no effect and 100 is complete control, read-out: Kochia plant response rating
How it was run: as §2

[10] = tested on: Galium (catchweed bedstraw, Galium aparine); assay: Test A postemergence; conditions: Galium, post-emergence, 240 h
How it was run: as §2

corn (Zea mays) = assay: Test A postemergence; conditions: Zea mays, post-emergence, 240 h
How it was run: as §2

[11] = tested on: ryegrass, Italian (Italian ryegrass, Lolium multiflorum); assay: Test A postemergence; conditions: Lolium multiflorum, post-emergence, 240 h
How it was run: as §2

[12] = tested on: barnyardgrass (Echinochloa crus-galli); assay: Test A postemergence; conditions: Echinochloa crus-galli, post-emergence, 240 h
How it was run: as §2

[13] = tested on: giant foxtail (Setaria faberii); assay: Test A postemergence; conditions: Setaria faberi, post-emergence, 240 h
How it was run: as §2

[14] = tested on: blackgrass (Alopecurus myosuroides); assay: Test A postemergence; conditions: Alopecurus myosuroides, post-emergence, 240 h
How it was run: as §2

[15] = tested on: pigweed (Amaranthus retroflexus); assay: Test A postemergence; conditions: Amaranthus retroflexus, post-emergence, 240 h
How it was run: as §2

[16] = tested on: ragweed (common ragweed, Ambrosia elatior); assay: Test A postemergence; conditions: Ambrosia artemisiifolia, post-emergence, 240 h
How it was run: as §2

[17] = tested on: wheat (Triticum aestivum); assay: Test A postemergence; conditions: Triticum aestivum, post-emergence, 240 h
How it was run: as §2

Kochia (Kochia scoparia) [18] = assay: Test A postemergence; conditions: Bassia scoparia, post-emergence, 240 h
How it was run: as §2

[19] = 125 g ai/ha, preemergence, approx. 10 d

CN1C[C@H](c2csc3c2CCC3)[C@@H](C(=O)Nc2ccccc2S(C)(=O)=O)C1=O [Compound 1082]
35%: pest or weed control at 250 g/ha (rice (Oryra sativa))
0%: pest or weed control at 250 g/ha [1] | pest or weed control at 250 g/ha [3] | pest or weed control at 31 g/ha ([4]; 31 g ai/ha, Preemergence) | pest or weed control at 125 g/ha [4, 19] | pest or weed control at 31 g/ha ([5]; 31 g ai/ha, Preemergence) | pest or weed control at 125 g/ha [5, 19] | pest or weed control at 31 g/ha ([6]; 31 g ai/ha, Preemergence) | pest or weed control at 125 g/ha [6, 19] | pest or weed control at 31 g/ha ([7]; 31 g ai/ha, Preemergence) | pest or weed control at 125 g/ha [7, 19] | pest or weed control at 31 g/ha ([8]; 31 g ai/ha, Preemergence) | pest or weed control at 125 g/ha [8, 19] | pest or weed control at 31 g/ha (Kochia (Kochia scoparia) [9]; 31 g ai/ha, Preemergence) | pest or weed control at 125 g/ha (Kochia (Kochia scoparia) [9]; [19]) | pest or weed control at 125 g/ha ([10]; 125 g ai/ha, postemergence, visual injury on 0 to 100 scale (0 no effect, 100 complete control), approx. 10 d, read-out: Galium plant response rating) | pest or weed control at 31 g/ha ([10]; Postemergence, 31 g ai/ha, visual injury after approx. 10 d, 0 to 100 scale, 0 no effect, 100 complete control, read-out: Plant response rating, Galium) | Corn plant response rating (crop injury, 0 = no effect, 100 = complete kill) at 31 g/ha (corn (Zea mays); Postemergence, 31 g ai/ha, visual injury after approx. 10 d, 0 to 100 scale, 0 no effect, 100 complete control) | pest or weed control at 125 g/ha ([11]; 125 g ai/ha, postemergence, visual injury on 0 to 100 scale (0 no effect, 100 complete control), approx. 10 d, read-out: Ryegrass, Italian plant response rating) | pest or weed control at 31 g/ha ([11]; Postemergence, 31 g ai/ha, visual injury after approx. 10 d, 0 to 100 scale, 0 no effect, 100 complete control, read-out: Plant response rating, Ryegrass, Italian) | pest or weed control at 31 g/ha ([12]; Postemergence, 31 g ai/ha, visual injury after approx. 10 d, 0 to 100 scale, 0 no effect, 100 complete control, read-out: Plant response rating, Barnyardgrass) | pest or weed control at 125 g/ha ([13]; 125 g ai/ha, postemergence, visual injury on 0 to 100 scale (0 no effect, 100 complete control), approx. 10 d, read-out: Foxtail, Giant plant response rating) | pest or weed control at 31 g/ha ([13]; Postemergence, 31 g ai/ha, visual injury after approx. 10 d, 0 to 100 scale, 0 no effect, 100 complete control, read-out: Plant response rating, Foxtail, Giant) | pest or weed control at 125 g/ha ([14]; 125 g ai/ha, postemergence, visual injury on 0 to 100 scale (0 no effect, 100 complete control), approx. 10 d, read-out: Blackgrass plant response rating) | pest or weed control at 31 g/ha ([14]; Postemergence, 31 g ai/ha, visual injury after approx. 10 d, 0 to 100 scale, 0 no effect, 100 complete control, read-out: Plant response rating, Blackgrass) | pest or weed control at 125 g/ha ([15]; 125 g ai/ha, postemergence, visual injury on 0 to 100 scale (0 no effect, 100 complete control), approx. 10 d, read-out: Pigweed plant response rating) | pest or weed control at 31 g/ha ([15]; Postemergence, 31 g ai/ha, visual injury after approx. 10 d, 0 to 100 scale, 0 no effect, 100 complete control, read-out: Plant response rating, Pigweed) | pest or weed control at 125 g/ha ([16]; 125 g ai/ha, postemergence, visual injury on 0 to 100 scale (0 no effect, 100 complete control), approx. 10 d, read-out: Ragweed plant response rating) | pest or weed control at 31 g/ha ([16]; Postemergence, 31 g ai/ha, visual injury after approx. 10 d, 0 to 100 scale, 0 no effect, 100 complete control, read-out: Plant response rating, Ragweed) | plant injury at 125 g/ha ([17]; 125 g ai/ha, postemergence, visual injury on 0 to 100 scale (0 no effect, 100 complete control), approx. 10 d, read-out: Wheat plant response rating) | plant injury at 31 g/ha ([17]; Postemergence, 31 g ai/ha, visual injury after approx. 10 d, 0 to 100 scale, 0 no effect, 100 complete control, read-out: Plant response rating, Wheat) | pest or weed control at 125 g/ha (Kochia (Kochia scoparia) [18]; 125 g ai/ha, postemergence, visual injury on 0 to 100 scale (0 no effect, 100 complete control), approx. 10 d, read-out: Kochia plant response rating) | pest or weed control at 31 g/ha (Kochia (Kochia scoparia) [18]; Postemergence, 31 g ai/ha, visual injury after approx. 10 d, 0 to 100 scale, 0 no effect, 100 complete control, read-out: Plant response rating, Kochia)
30%: plant injury at 125 g/ha (corn (Zea mays); 125 g ai/ha, postemergence, visual injury on 0 to 100 scale (0 no effect, 100 complete control), approx. 10 d, read-out: Corn plant response rating) | pest or weed control at 125 g/ha ([12]; 125 g ai/ha, postemergence, visual injury on 0 to 100 scale (0 no effect, 100 complete control), approx. 10 d, read-out: Barnyardgrass plant response rating)
70%: pest or weed control at 250 g/ha [2]
